Results reported in patent publication US20220119354A1, “DIAMINO-SUBSTITUTED PYRIDINES AND PYRIMIDINES AS HERBICIDES” (FMC Corporation, priority 2019, published 2022).

Assays:
Assay type in all cases: in vivo
[1] = test system: galium (catchweed bedstraw, Galium aparine); assay: Test A postemergence, galium; details: 0 to 100 scale
Procedure, shortened: (§1)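 Ratings reflect visual comparison with untreated controls roughly 10 d after greenhouse application, 0 meaning no effect and 100 complete control. Treatment was by directed soil spray at planting or by spray onto one- to two-leaf plants in loam/sand pots.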

[2] = test system: pigweed (Amaranthus retroflexus); assay: Test A postemergence, pigweed; details: 0 to 100 scale
Procedure, shortened: as §1

[3] = test system: foxtail, giant (Setaria faberii); assay: Test A postemergence, giant foxtail; details: 0 to 100 scale
Procedure, shortened: as §1

[4] = test system: ragweed (common ragweed, Ambrosia elatior); assay: Test A preemergence, ragweed; details: 0 to 100 scale; for Ragweed plant response rating: 125 g ai/ha, 0 is no effect, 100 is complete control; for Plant response rating, Ragweed: 500 g ai/ha
Procedure, shortened: as §1

[5] = test system: pigweed (Amaranthus retroflexus); assay: Test A preemergence, pigweed; details: 0 to 100 scale; for Pigweed plant response rating: 125 g ai/ha, 0 is no effect, 100 is complete control; for Plant response rating, Pigweed: 500 g ai/ha
Procedure, shortened: as §1

[6] = test system: sedge, umbrella (small-flower umbrella sedge, Cyperus difformis); assay: Test B flooded paddy test, umbrella sedge; details: Flood, 250 g ai/ha, applied to paddy water, 2-leaf stage, visual evaluation after 13 to 15 d
Procedure, shortened: (§2)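 Pots flooded to 3 cm above the soil when treated, with test compound added straight to the water and the flood maintained. Treated plants were at the 2-leaf stage and stayed 13–15 d in greenhouse. Response versus untreated controls scored visually from 0 (no effect) to 100 (complete control).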

[7] = test system: foxtail, giant (Setaria faberii); assay: Test A preemergence, giant foxtail; details: 0 to 100 scale; for Foxtail, Giant plant response rating: 125 g ai/ha, 0 is no effect, 100 is complete control; for Plant response rating, Foxtail, Giant: 500 g ai/ha
Procedure, shortened: as §1

[8] = test system: barnyardgrass (Echinochloa crus-galli); assay: Test A postemergence, barnyardgrass; details: 0 to 100 scale
Procedure, shortened: as §1

[9] = test system: barnyardgrass (Echinochloa crus-galli); assay: Test A preemergence, barnyardgrass; details: 0 to 100 scale; for Barnyardgrass plant response rating: 125 g ai/ha, 0 is no effect, 100 is complete control; for Plant response rating, Barnyardgrass: 500 g ai/ha
Procedure, shortened: as §1

[10] = test system: corn (Zea mays); assay: Test A postemergence, corn; details: 0 to 100 scale
Procedure, shortened: as §1

[11] = test system: ryegrass, Italian (Lolium multiflorum); assay: Test A preemergence, Italian ryegrass; details: 0 to 100 scale; for Ryegrass, Italian plant response rating: 125 g ai/ha, 0 is no effect, 100 is complete control; for Plant response rating, Ryegrass, Italian: 500 g ai/ha
Procedure, shortened: as §1

[12] = test system: blackgrass (Alopecurus myosuroides); assay: Test A postemergence, blackgrass; details: 0 to 100 scale
Procedure, shortened: as §1

[13] = test system: barnyardgrass (Echinochloa crus-galli); assay: Test B flooded paddy test, barnyardgrass; details: Flood, 250 g ai/ha, applied to paddy water, 2-leaf stage, visual evaluation after 13 to 15 d
Procedure, shortened: as §2

[14] = test system: rice (Oryza sativa); assay: Test B flooded paddy test, rice; details: Flood, 250 g ai/ha, applied to paddy water, 2-leaf stage, visual evaluation after 13 to 15 d
Procedure, shortened: as §2

[15] = test system: ragweed (common ragweed, Ambrosia elatior); assay: Test A postemergence, ragweed; details: 0 to 100 scale
Procedure, shortened: as §1

[16] = test system: kochia (Kochia scoparia); assay: Test A preemergence, kochia; details: 0 to 100 scale; for Kochia plant response rating: 125 g ai/ha, 0 is no effect, 100 is complete control; for Plant response rating, Kochia: 500 g ai/ha
Procedure, shortened: as §1

[17] = test system: kochia (Kochia scoparia); assay: Test A postemergence, kochia; details: 0 to 100 scale
Procedure, shortened: as §1

[18] = test system: ryegrass, Italian (Lolium multiflorum); assay: Test A postemergence, Italian ryegrass; details: 0 to 100 scale
Procedure, shortened: as §1

[19] = test system: wheat (Triticum aestivum); assay: Test A postemergence, wheat; details: 0 to 100 scale
Procedure, shortened: as §1

[20] = test system: ducksalad (Heteranthera limosa); assay: Test B flooded paddy test, ducksalad; details: Flood, 250 g ai/ha, applied to paddy water, 2-leaf stage, visual evaluation after 13 to 15 d
Procedure, shortened: as §2

SMILES | Plant response rating, Galium ([1]; 125 g ai/ha) | Plant response rating, Galium ([1]; 500 g ai/ha) | Plant response rating, Pigweed ([2]; 125 g ai/ha) | Plant response rating, Pigweed ([2]; 500 g ai/ha) | Plant response rating, Foxtail, Giant ([3]; 125 g ai/ha) | Plant response rating, Foxtail, Giant ([3]; 500 g ai/ha) | Ragweed plant response rating [4] | Plant response rating, Ragweed [4] | Pigweed plant response rating [5] | Plant response rating, Pigweed [5] | Plant response rating, Sedge, Umbrella (0 to 100 scale, 0 is no effect, 100 is complete control) [6] | Foxtail, Giant plant response rating [7] | Plant response rating, Foxtail, Giant [7] | Plant response rating, Barnyardgrass ([8]; 125 g ai/ha) | Plant response rating, Barnyardgrass ([8]; 500 g ai/ha) | Barnyardgrass plant response rating [9] | Plant response rating, Barnyardgrass [9] | Plant response rating, Corn ([10]; 125 g ai/ha) | Plant response rating, Corn ([10]; 500 g ai/ha) | Ryegrass, Italian plant response rating [11] | also measured
Cc1cccc(OCC(C)Nc2ncc(C(F)(F)F)c(N)n2)c1 (stereo not drawn) [Compound 32] | 60 | 70 | 30 | 60 | 0 | 40 | 0 | 100 | 10 | 60 | 0 | 20 | 80 | 0 | 20 | 0 | 90 | 0 | 0 | 0 | Plant response rating, Ryegrass, Italian [11]: 0; Plant response rating, Blackgrass ([12]; 125 g ai/ha): 0; Plant response rating, Blackgrass ([12]; 500 g ai/ha): 0; Plant response rating, Barnyardgrass (0 to 100 scale, 0 is no effect, 100 is complete control) [13]: 0; Plant response rating, Rice (0 to 100 scale, 0 is no effect, 100 is complete control) [14]: 0; Plant response rating, Ragweed ([15]; 125 g ai/ha): 0; Plant response rating, Ragweed ([15]; 500 g ai/ha): 40; Kochia plant response rating [16]: 0; Plant response rating, Kochia [16]: 30; Plant response rating, Kochia ([17]; 125 g ai/ha): 20; Plant response rating, Kochia ([17]; 500 g ai/ha): 60; Plant response rating, Ryegrass, Italian ([18]; 125 g ai/ha): 0; Plant response rating, Ryegrass, Italian ([18]; 500 g ai/ha): 0; Plant response rating, Wheat ([19]; 125 g ai/ha): 0; Plant response rating, Wheat ([19]; 500 g ai/ha): 0; Plant response rating, Ducksalad (0 to 100 scale, 0 is no effect, 100 is complete control) [20]: 0
CC(COc1cc(F)cc(F)c1)Nc1ncc(C(F)(F)F)c(N)n1 (stereo not drawn) [Compound 33] | 20 | 60 | 0 | 30 | 0 | 0 | 0 | 0 | 20 | 50 | 25 | 0 | 30 | 0 | 0 | 0 | 0 | 0 | 0 | 0 | Plant response rating, Ryegrass, Italian [11]: 0; Plant response rating, Blackgrass ([12]; 125 g ai/ha): 0; Plant response rating, Blackgrass ([12]; 500 g ai/ha): 0; Plant response rating, Barnyardgrass (0 to 100 scale, 0 is no effect, 100 is complete control) [13]: 0; Plant response rating, Rice (0 to 100 scale, 0 is no effect, 100 is complete control) [14]: 0; Plant response rating, Ragweed ([15]; 125 g ai/ha): 0; Plant response rating, Ragweed ([15]; 500 g ai/ha): 0; Kochia plant response rating [16]: 0; Plant response rating, Kochia [16]: 30; Plant response rating, Kochia ([17]; 125 g ai/ha): 0; Plant response rating, Kochia ([17]; 500 g ai/ha): 30; Plant response rating, Ryegrass, Italian ([18]; 125 g ai/ha): 0; Plant response rating, Ryegrass, Italian ([18]; 500 g ai/ha): 0; Plant response rating, Wheat ([19]; 125 g ai/ha): 0; Plant response rating, Wheat ([19]; 500 g ai/ha): 0; Plant response rating, Ducksalad (0 to 100 scale, 0 is no effect, 100 is complete control) [20]: 70
CC(COc1cccc(C(F)(F)F)c1)Nc1ncc(C(F)(F)F)c(N)n1 (stereo not drawn) [Compound 34] | 30 | 70 | 0 | 60 | 0 | 30 | 20 | 80 | 10 | 90 | 0 | 50 | 90 | 0 | 20 | 80 | 100 | 0 | 10 | 0 | Plant response rating, Ryegrass, Italian [11]: 30; Plant response rating, Blackgrass ([12]; 125 g ai/ha): 0; Plant response rating, Blackgrass ([12]; 500 g ai/ha): 30; Plant response rating, Barnyardgrass (0 to 100 scale, 0 is no effect, 100 is complete control) [13]: 0; Plant response rating, Rice (0 to 100 scale, 0 is no effect, 100 is complete control) [14]: 0; Plant response rating, Ragweed ([15]; 125 g ai/ha): 0; Plant response rating, Ragweed ([15]; 500 g ai/ha): 0; Kochia plant response rating [16]: 0; Plant response rating, Kochia [16]: 80; Plant response rating, Kochia ([17]; 125 g ai/ha): 30; Plant response rating, Kochia ([17]; 500 g ai/ha): 70; Plant response rating, Ryegrass, Italian ([18]; 125 g ai/ha): 0; Plant response rating, Ryegrass, Italian ([18]; 500 g ai/ha): 60; Plant response rating, Wheat ([19]; 125 g ai/ha): 0; Plant response rating, Wheat ([19]; 500 g ai/ha): 0; Plant response rating, Ducksalad (0 to 100 scale, 0 is no effect, 100 is complete control) [20]: 0
CC(COc1cc(Cl)cc(Cl)c1)Nc1ncc(C(F)(F)F)c(N)n1 (stereo not drawn) [Compound 35] | 0 | 60 | 0 | 50 | 0 | 0 | 0 | 0 | 0 | 0 | 0 | 0 | 0 | 20 | 0 | 0 | 0 | 0 | 0 | 0 | Plant response rating, Ryegrass, Italian [11]: 0; Plant response rating, Blackgrass ([12]; 125 g ai/ha): 0; Plant response rating, Blackgrass ([12]; 500 g ai/ha): 0; Plant response rating, Barnyardgrass (0 to 100 scale, 0 is no effect, 100 is complete control) [13]: 0; Plant response rating, Rice (0 to 100 scale, 0 is no effect, 100 is complete control) [14]: 0; Plant response rating, Ragweed ([15]; 125 g ai/ha): 0; Plant response rating, Ragweed ([15]; 500 g ai/ha): 0; Kochia plant response rating [16]: 0; Plant response rating, Kochia [16]: 40; Plant response rating, Kochia ([17]; 125 g ai/ha): 0; Plant response rating, Kochia ([17]; 500 g ai/ha): 20; Plant response rating, Ryegrass, Italian ([18]; 125 g ai/ha): 40; Plant response rating, Ryegrass, Italian ([18]; 500 g ai/ha): 30; Plant response rating, Wheat ([19]; 125 g ai/ha): 0; Plant response rating, Wheat ([19]; 500 g ai/ha): 0; Plant response rating, Ducksalad (0 to 100 scale, 0 is no effect, 100 is complete control) [20]: 0
